From patent US9840547B2, “Hepatic insulin sensitizing substance and test meal for insulin sensitization” (SciMar Ltd., priority 2013, dated 2017)

Columns and labels:
[1] = literature; cited from earlier work
[2] = tested on: cultured L6 skeletal muscle cells; experiment: Plasma HISS activity on glucose uptake in cultured L6 skeletal muscle cells (2-NBDG bioassay); format: cell-based; details: plasma insulin concentration versus RFU, linear regression
Procedure: Individual plasma samples were tested in 1-3 wells/sample with 2 measurements/well.

[3] = Time course of hypoglycemic action in rats; format: in vivo; details: after an intravenous injection
[4] = Time course of hypoglycemic action in humans; format: in vivo; details: after an intravenous injection

Row | Substance | hypoglycemic action [1] | stimulation of glucose uptake response in L6 cells [2] | time at which action returns to baseline [3] [min] | time at which action returns to baseline [4] [min]
1 | bone morphogenetic protein 9 | no rapid hypoglycemic effect |  |  | 
2 | insulin |  | not stimulated by insulin | 35 | 90
